Laboratory results published in patent US6677488B2, “Substituted biphenyl compounds for the treatment of inflammation” (G.D. Searle & Co., priority 1995, dated 2004).

melting point	SMILES
151.5 to 152.2 °C	Cc1cc(-c2cc(F)c(F)cc2-c2ccc(S(C)(=O)=O)cc2)ccc1Cl [Example 32, 4-(4-Chloro-3-methylphenyl)-1,2-difluoro-5-[4-(methylsulfonyl)phenyl]benzene]
125.1 to 125.8 °C	Cc1ccc(-c2cc(F)c(F)cc2-c2ccc(S(C)(=O)=O)cc2)cc1C [Example 33, 1,2-Difluoro-4-(3,4-dimethylphenyl)-5-[4-(methylsulfonyl)phenyl]benzene]
151.5 to 152 °C	Cc1cc(-c2cc(F)c(F)cc2-c2ccc(S(N)(=O)=O)cc2)ccc1F [Example 34, 4-[4,5-Difluoro-2-(4-fluoro-3-methylphenyl)phenyl)benzenesulfonamide]
160.5 to 161.5 °C	COc1ccc(-c2cc(F)c(F)cc2-c2ccc(S(C)(=O)=O)cc2)cc1C [Example 35, 1,2-Difluoro-4-(4-methoxy-3-methylpheny)-5-[4-(methylsulfonyl)phenyl]benzene]
141.5 to 142.8 °C	Cc1cc(-c2cc(F)c(F)cc2-c2ccc(S(N)(=O)=O)cc2)ccc1Cl [Example 36, 4-[2-(4-Chloro-3-methylphenyl)-4,5-difluorophenyl]benzenesulfonamide]
132.8 to 133.9 °C	Cc1ccc(-c2cc(F)c(F)cc2-c2ccc(S(N)(=O)=O)cc2)cc1C [Example 37, 4-[4,5-Difluoro-2-(3,4-dimethylphenyl)phenyl]benzenesulfonamide]
145.5 to 146 °C	COc1c(Cl)cc(-c2cc(F)c(F)cc2-c2ccc(S(N)(=O)=O)cc2)cc1Cl [Example 38, 4-[2-(3,5-Dichloro-4-methoxyphenyl)-4,5-difluorophenyl]benzenesulfonamide]
120 to 121.8 °C	COc1ccc(-c2cc(F)c(F)cc2-c2ccc(S(N)(=O)=O)cc2)cc1C [Example 39, 4-[4,5-Difluoro-2-(4-methoxy-3-methylphenyl)phenyl]benzenesulfonamide]
140 to 141 °C	COc1ccc(-c2cc(F)c(F)cc2-c2ccc(S(C)(=O)=O)cc2)cc1OC [Example 40, 1,2-Difluoro-4-(3,4-dimethoxypheny)-5-[4-(methylsulfonyl)phenyl]benzene]
82 to 83 °C	CS(=O)(=O)c1ccc(-c2cc(F)c(F)cc2-c2ccc3c(c2)OCCO3)cc1 [Example 41]
157 to 158 °C	COc1ccc(-c2cc(F)c(F)cc2-c2ccc(S(N)(=O)=O)cc2)cc1OC [Example 42, 4-[4,5-Difluoro-2-(3,4-dimethoxyphenyl)phenyl]benzenesulfonamide]
107 to 108 °C	NS(=O)(=O)c1ccc(-c2cc(F)c(F)cc2-c2ccc3c(c2)OCCO3)cc1 [Example 43, 4-[2-(2,3-Dihydro-1,4-benzodioxin-6-yl)-4,5-difluorophenyl]benzenesulfonamide]
143.5 to 144.5 °C	CS(=O)(=O)c1ccc(-c2cc(Cl)c(Cl)cc2-c2ccc(F)cc2)cc1 [Example 44, 1,2-Dichloro-4-(4-fluorophenyl)-5-[4-(methylsulfonyl)phenyl]benzene]
141 to 142.5 °C	Cc1ccc(-c2cc(F)c(F)cc2-c2ccc(S(C)(=O)=O)cc2)cn1 [Example 47, 5-[4,5-Difluoro-4′-(methylsulfonyl)-(1,1′-biphenyl)-2-yl]-2-methylpyridine]
> 96 °C (dec.)	Cc1ccc(-c2cc(F)c(F)cc2-c2ccc(S(N)(=O)=O)cc2)cn1 [Example 48, 4-[4,5-Difluoro-2-(6-methylpyridin-3-yl)phenyl]benzenesulfonamide]
